Data as given in patent USRE42152E1, “Aromatic-linked polyamine macrocyclic compounds with anti-HIV activity” (Genzyme Corporation, priority 1992, dated 2011).
Converted amounts (≈) assume the structure as drawn. Like-named read-outs stand apart in the source and are kept apart here. Each block holds one compound with its values, some of them ahead of it.

Columns and labels:
Assay type in all cases: cell-based
[1] = test system: HIV uncoating (or fusion); assay: Sensitivity of viral RNA from freshly infected MT4 cells to RNase degradation (uncoating); conditions: radiolabelled viral particles, RNA harvested 4 hours after infection
Text: It was reasoned that if tincoating (fusion) was hampered, the viral capsid (or envelope) proteins would remain associated with the viral RNA genome and thus the RNA should be protected against RNase attack.

HIV-1 strain IIIb = assay: Time-of-addition experiment, MT4 cells infected with HIV-1 IIIb, p24 antigen; conditions: HIV-1 IIIb at high multiplicity, p24 at 29 hours after infection
Method: To pinpoint the stage at which the compounds interact with the HIV replicative cycle, a time-of-addition experiment was carried out on MT4 cells infected with HIV-1 strain IIIb at high virus multiplicity to ensure that the virus replicative steps would be synchronised in the whole cell populations. Test compounds wife added 1, 2, 3, . . . 22, 23, 24 hours after infection, and vital p24 antigen production determined 29 hours after infection.
Depending on the stage at which compounds interact and the need for intracellular metabolism, addition of the compounds could be delayed for n hours without loss of activity.

HIV-2 (LAV-2 ROD) = assay: MTT anti-viral screen, MT-4 cells challenged with HIV-2; conditions: for IC50: Human immunodeficiency virus 2, MT4, 120 h, read-out: IC50 HIV-2 (ROD)
MT-4 cells = assay: Cytotoxicity by MTT method in MT-4 cells
HIV-1 (HTLV-IIIB) = assay: microbe, parasite or virus in culture; conditions: for IC50: Human immunodeficiency virus 1, IIIB, MT4, 120 h, read-out: IC50 HIV-1 (IIIB)
[2] = Cytotoxicity by MTT method in MT-4 cells
[3] = MT-4 cells, 100 CCID50, 5 days, MTT
[4] = human, MT-4 cells, 5 days, MTT; HIV-1 part of table; read-out: CC50 (HIV-1 (IIIB))
[5] = human, MT-4 cells, 5 days, MTT; HIV-2 part of table; read-out: CC50 (HIV-2 (ROD))
[6] = human; MT-4 cells, 5 days, MTT; HIV-1 part of table; read-out: CC50 (HIV-1 (IIIB))
[7] = MT-4 cells, 5 days, MTT, HIV-1 part of table
[8] = MT-4 cells, 5 days, MTT, HIV-2 part of table

Compound: O=c1[nH]cnc2c1ncn2[C@H]1CC[C@@H](CO)O1 [DDI]
resistance of viral RNA to degradation by RNase [1]: did not show this increased resistance

Compound: CC(C)(C)NC(=O)[C@@H]1C[C@@H]2CCCC[C@@H]2CN1C[C@@H](O)[C@H](Cc1ccccc1)NC(=O)[C@H](CC(N)=O)NC(=O)c1ccc2ccccc2n1 [Ro31-8959]
resistance of viral RNA to degradation by RNase [1]: did not show this increased resistance | n, hours addition could be delayed after infection without loss of activity (HIV-1 strain IIIb): 12 h

Compound: Br.Br.Br.Br.Br.Br.Br.Br.O.O.O.O.c1cc(CN2CCCNCCNCCCNCC2)cc(-c2cccc(CN3CCCNCCNCCCNCC3)c2)c1 [Compound J, 1,1′-[3,3′-Biphenylene-bis-(methylene)]-bis-1,4,8,11-tetraazacyclotetradecane octahydrobromide tetrahydrate]
IC50 HIV-2 (ROD) (HIV-2 (LAV-2 ROD); [3]): 0.22 µg/mL | CC50 (HIV-1 (IIIB)) (MT-4 cells): >200 µg/mL | CC50 (HIV-2 (ROD)) (MT-4 cells): >200 µg/mL | IC50 HIV-1 (IIIB) (HIV-1 (HTLV-IIIB); [3]): 0.16 µg/mL

Compound: O=[N+]([O-])c1cc(CN2CCCNCCNCCCNCC2)cc(CN2CCCNCCNCCCNCC2)c1 [Compound C, 1,1′-[5-nitro-1,3-phenylenebis-(methylene)]-bis-1,4,8,11-tetraazacyclotetradecane]
IC50 (HIV-2 (LAV-2 ROD); [3]): 0.07 µg/mL (≈ 0.128 µM) | CC50 at 5 days [2, 4]: 55 µg/mL (≈ 100 µM) | CC50 at 5 days [2, 5]: 55 µg/mL (≈ 100 µM) | IC50 (HIV-1 (HTLV-IIIB); [3]): 0.05 µg/mL (≈ 0.0913 µM)

Compound: c1cc(CN2CCCNCCNCCCNCC2)cc(CN2CCCNCCNCCCNCC2)c1 [A, 1,1′-[1,3-phenylenebis(methylene)]bis-1,4,8,11-tetraazacyclotetradecane]
IC50 (HIV-2 (LAV-2 ROD); [3]): < 0.01 µg/mL | CC50 at 5 days [2, 4]: > 500 µg/mL | CC50 at 5 days [2, 5]: > 500 µg/mL | IC50 (HIV-1 (HTLV-IIIB); [3]): 0.03 µg/mL (≈ 0.0597 µM)

Compound: Br.Br.Br.Br.Br.Br.c1cc(CN2CCNCCNCCNCC2)cc(CN2CCNCCNCCNCC2)c1 [Compound Q, 1,1′-[1,3-Phenylenebis-(methylene)]-bis-1,4,7,10-tetraazacyclododecane hexahydrobromide]
IC50 (HIV-2 (LAV-2 ROD)): 0.5 µg/mL | CC50 at 5 days [2, 6]: 19 µg/mL | IC50 (HIV-1 (HTLV-IIIB)): 0.07 µg/mL

Compound: 1,1′-[1,4-Phenylene-bis-(methylene)]-bis-1,4,8,11-tetraazacyclotetradecane zinc dichloride monohydrate [Compound F]
IC50 HIV-2 (ROD) (HIV-2 (LAV-2 ROD); [3]): 0.0019 µg/mL | CC50 (HIV-1 (IIIB)) (MT-4 cells; [7]): >200 µg/mL | CC50 (HIV-2 (ROD)) (MT-4 cells; [8]): >200 µg/mL | IC50 HIV-1 (IIIB) (HIV-1 (HTLV-IIIB); [3]): 0.0026 µg/mL

Compound: Br.Br.Br.Br.Br.Br.Br.Br.O.O.c1cc(CN2CCCNCCNCCNCCC2)ccc1CN1CCCNCCNCCNCCC1 [Compound M, 11,11′-[1,4-Phenylene-bis-(methylene)]-bis-1,4,7,11-tetraazacyclotetradecane octahydrobromide dihydrate]
IC50 (HIV-2 (LAV-2 ROD)): 0.07 µg/mL | CC50 (HIV-2 (ROD)) (MT-4 cells; [8]): >500 µg/mL | CC50 at 5 days [2, 6]: > 500 µg/mL | IC50 (HIV-1 (HTLV-IIIB)): 0.03 µg/mL

Compound: Br.Br.Br.Br.Br.Br.Br.Br.O.O.O.O.O.O.c1cc(CN2CCCNCCNCCCNCC2)ccc1CN1CCCNCCNCCNCCC1 [Compound N, 1,11′-[1,4-Phenylene-bis-(methylene)]-1,4,8,11-tetraazacyclotetradecane-1,4,7,11-tetraazacydotetradecane octahydrobromide hexahydrate]
IC50 HIV-2 (ROD) (HIV-2 (LAV-2 ROD); [3]): 0.07 µg/mL | CC50 (HIV-1 (IIIB)) (MT-4 cells): >500 µg/mL | CC50 (HIV-2 (ROD)) (MT-4 cells): >500 µg/mL | IC50 HIV-1 (IIIB) (HIV-1 (HTLV-IIIB); [3]): 0.01 µg/mL

Compound: CC(C)=CCN1Cc2cc(Cl)cc3[nH]c(=S)n(c23)C[C@@H]1C [Compound R82913]
resistance of viral RNA to degradation by RNase [1]: did not show this increased resistance | n, hours addition could be delayed after infection without loss of activity (HIV-1 strain IIIb): 6 h

Compound: 1,1′-[1,4-Phenylene-bis-(methylene)]-bis-1,4,8,11-tetraazacyclotetradecane copper diacetate hexahydrate [Compound G]
IC50 HIV-2 (ROD) (HIV-2 (LAV-2 ROD); [3]): 0.027 µg/mL | CC50 (HIV-1 (IIIB)) (MT-4 cells; [7]): >200 µg/mL | CC50 (HIV-2 (ROD)) (MT-4 cells; [8]): >200 µg/mL | IC50 HIV-1 (IIIB) (HIV-1 (HTLV-IIIB); [3]): 0.018 µg/mL

Compound: Br.Br.Br.Br.Br.Br.c1cc(CN2CCNCCNCCNCC2)ccc1CN1CCNCCNCCNCC1 [Compound R, 1,1′-[1,4-Phenylenebis-(methylene)]-bis-1,4,7,10-tetraazacyclododecane hexahydrobromide]
IC50 (HIV-2 (LAV-2 ROD)): 2.2 µg/mL | CC50 at 5 days [2, 6]: 51 µg/mL | IC50 (HIV-1 (HTLV-IIIB)): 0.3 µg/mL

Compound: Br.Br.Br.Br.Br.Br.Br.Br.Br.Br.O.O.O.c1cc2ccc3ccc(CN4CCCNCCNCCCNCC4)nc3c2nc1CN1CCCNCCNCCCNCC1 [Compound L, 1,1′-[2,9-(1,10-Phenanthroline)-bis-(methylene)]-bis-1,4,8,11-tetraazacyclotetradecane decahydrobromide trihydrate]
IC50 HIV-2 (ROD) (HIV-2 (LAV-2 ROD); [3]): 0.32 µg/mL | CC50 (HIV-1 (IIIB)) (MT-4 cells): >200 µg/mL | CC50 (HIV-2 (ROD)) (MT-4 cells): >200 µg/mL | IC50 HIV-1 (IIIB) (HIV-1 (HTLV-IIIB); [3]): 0.29 µg/mL

Compound: Br.Br.Br.Br.Br.Br.Br.Br.Br.Br.O.O.O.O.O.c1cc(CN2CCCNCCNCCCNCC2)cc(-c2cc(CN3CCCNCCNCCCNCC3)ccn2)n1 [Compound K, 1,1′-[4,4′-(2,2′-Bipyridine)-bis-(methyl)]-bis-1,4,8,11-tetraazacyclotetradecane decahydrobromide pentahydrate]
IC50 HIV-2 (ROD) (HIV-2 (LAV-2 ROD); [3]): 0.35 µg/mL | CC50 (HIV-1 (IIIB)) (MT-4 cells; [7]): 117 µg/mL | CC50 (HIV-2 (ROD)) (MT-4 cells; [8]): 117 µg/mL | IC50 HIV-1 (IIIB) (HIV-1 (HTLV-IIIB); [3]): 0.38 µg/mL

Second part, led by results:

IC50 HIV-2 (ROD) (HIV-2 (LAV-2 ROD); [3]): 0.05 µg/mL (≈ 0.0904 µM) | IC50 HIV-1 (IIIB) (HIV-1 (HTLV-IIIB); [3]): 0.07 µg/mL (≈ 0.127 µM)
Compound: c1ccc2c(CN3CCCNCCNCCCNCC3)ccc(CN3CCCNCCNCCCNCC3)c2c1 [E, 1,1′-[1,4-naphthylenebis(methylene)]bis-1,4,8,11-tetraazacyclotetradecane]
CC50 (HIV-1 (IIIB)) (MT-4 cells): 71 µg/mL (≈ 128 µM) | CC50 (HIV-2 (ROD)) (MT-4 cells): 71 µg/mL (≈ 128 µM)

IC50 HIV-2 (ROD) (HIV-2 (LAV-2 ROD); [3]): 0.08 µg/mL | IC50 HIV-1 (IIIB) (HIV-1 (HTLV-IIIB); [3]): 0.03 µg/mL
Compound: Br.Br.Br.Br.Br.Br.Br.Br.O.O.O.O.c1cc(CN2CCCNCCNCCCNCC2)nc(CN2CCCNCCNCCCNCC2)c1 [Compound O, 1,1′-[2,6-Pyridinebis-(methylene)]-bis-1,4,8,11-tetraazacyclotetradecane octahydrobromide tetrahydrate]
CC50 (HIV-1 (IIIB)) (MT-4 cells): >500 µg/mL | CC50 (HIV-2 (ROD)) (MT-4 cells): >500 µg/mL

IC50 (HIV-2 (LAV-2 ROD); [3]): 0.0013 µg/mL (≈ 0.00245 µM) | IC50 (HIV-1 (HTLV-IIIB); [3]): 0.0076 µg/mL (≈ 0.0143 µM)
Compound: Cc1cc(CN2CCCNCCNCCCNCC2)c(C)cc1CN1CCCNCCNCCCNCC1 [W, 1,1′-[2,5-dimethyl-1,4-phenylenebis-(methylene)]-bis-1,4,8,11-tetraazacyclotetradecane]
CC50 at 5 days [2, 4]: > 250 µg/mL | CC50 at 5 days [2, 5]: > 250 µg/mL

IC50 (HIV-2 (LAV-2 ROD); [3]): 0.0043 µg/mL (≈ 0.00739 µM) | IC50 (HIV-1 (HTLV-IIIB); [3]): 0.0075 µg/mL (≈ 0.0129 µM)
Compound: Brc1cc(CN2CCCNCCNCCCNCC2)ccc1CN1CCCNCCNCCCNCC1 [Y, 1,1′-[2-bromo-1,4-phenylenebis-(methylene)]-bis-1,4,8,11-tetraazacyclotetradecane]
CC50 at 5 days [2, 4]: > 250 µg/mL | CC50 at 5 days [2, 5]: > 250 µg/mL

IC50 (HIV-2 (LAV-2 ROD); [3]): 0.003 µg/mL (≈ 0.00525 µM) | IC50 (HIV-1 (HTLV-IIIB); [3]): 0.0131 µg/mL (≈ 0.0229 µM)
Compound: Clc1cc(CN2CCCNCCNCCCNCC2)c(Cl)cc1CN1CCCNCCNCCCNCC1 [X, 1,1′-[2,5-dichloro-1,4-phenylenebis-(methylene)]-bis-1,4,8,11-tetraazacyclotetradecane]
CC50 at 5 days [2, 4]: 71.9 µg/mL (≈ 126 µM) | CC50 at 5 days [2, 5]: 72.7 µg/mL (≈ 127 µM)

IC50 HIV-2 (ROD) (HIV-2 (LAV-2 ROD); [3]): 0.0246 µg/mL (≈ 0.0424 µM) | IC50 HIV-1 (IIIB) (HIV-1 (HTLV-IIIB); [3]): 0.0489 µg/mL (≈ 0.0843 µM)
Compound: c1ccc(-c2cc(CN3CCCNCCNCCCNCC3)cc(CN3CCCNCCNCCCNCC3)n2)cc1 [Z, 1,1′-[6-phenyl-2,4-pyridinebis-(methylene)]-bis-1,4,8,11-tetraazacyclotetradecane]
CC50 (HIV-1 (IIIB)) (MT-4 cells): >250 µg/mL | CC50 (HIV-2 (ROD)) (MT-4 cells): >250 µg/mL

IC50 HIV-2 (ROD) (HIV-2 (LAV-2 ROD); [3]): 0.09 µg/mL | IC50 HIV-1 (IIIB) (HIV-1 (HTLV-IIIB); [3]): 0.04 µg/mL
Compound: Br.Br.Br.Br.Br.Br.Br.Br.Br.O.O.c1ncc(CN2CCCNCCNCCCNCC2)cc1CN1CCCNCCNCCCNCC1 [Compound P, 1,1′[3,5-Pyridinebis-(methylene)]-bis-1,4,8,11-tetraazacyclotetradecane nonahydrobromide dihydrate]
CC50 (HIV-1 (IIIB)) (MT-4 cells): >500 µg/mL | CC50 (HIV-2 (ROD)) (MT-4 cells): >500 µg/mL

IC50 HIV-2 (ROD) (HIV-2 (LAV-2 ROD); [3]): 0.02 µg/mL | IC50 HIV-1 (IIIB) (HIV-1 (HTLV-IIIB); [3]): 0.01 µg/mL
Compound: Br.Br.Br.Br.Br.Br.Br.Br.c1cc(CN2CCCNCCNCCCNCC2)sc1CN1CCCNCCNCCCNCC1 [Compound T, 1,1′-[2,5-Thophenebis-(methylene)]-bis-1,4,8,11-tetraazacyclotetradecane octahydrobromide]
CC50 (HIV-1 (IIIB)) (MT-4 cells): >500 µg/mL | CC50 (HIV-2 (ROD)) (MT-4 cells): >500 µg/mL
